According to ChEMBL document CHEMBL1137685, “A three-step synthesis from rebeccamycin of an efficient checkpoint kinase 1 inhibitor” (Eur J Med Chem, 2009):

Legend:
[1] = target: T1, Serine/threonine-protein kinase Chk1 (Homo sapiens, UniProt O14757); test: Inhibition of GST-tagged human full-length CHK1 expressed in Sf9 cells
T1 sequence (O14757 whole entry): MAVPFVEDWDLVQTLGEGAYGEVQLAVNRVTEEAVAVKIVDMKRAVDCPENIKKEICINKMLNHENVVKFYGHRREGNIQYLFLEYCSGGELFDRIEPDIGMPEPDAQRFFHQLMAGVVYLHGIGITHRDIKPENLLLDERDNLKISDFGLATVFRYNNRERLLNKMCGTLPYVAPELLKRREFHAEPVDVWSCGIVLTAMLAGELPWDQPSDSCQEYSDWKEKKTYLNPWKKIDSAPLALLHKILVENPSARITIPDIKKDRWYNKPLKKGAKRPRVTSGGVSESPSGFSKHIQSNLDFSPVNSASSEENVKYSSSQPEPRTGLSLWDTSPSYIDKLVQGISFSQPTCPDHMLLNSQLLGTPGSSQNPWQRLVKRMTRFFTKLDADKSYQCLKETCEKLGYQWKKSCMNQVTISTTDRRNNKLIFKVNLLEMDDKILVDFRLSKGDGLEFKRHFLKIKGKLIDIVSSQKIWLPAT

[2] = target: Proto-oncogene tyrosine-protein kinase Src (Homo sapiens) (UniProt P12931); test: Inhibition of Src at 1 uM
Chain of Proto-oncogene tyrosine-protein kinase Src (Homo sapiens) (P12931 2-536 limits assumed): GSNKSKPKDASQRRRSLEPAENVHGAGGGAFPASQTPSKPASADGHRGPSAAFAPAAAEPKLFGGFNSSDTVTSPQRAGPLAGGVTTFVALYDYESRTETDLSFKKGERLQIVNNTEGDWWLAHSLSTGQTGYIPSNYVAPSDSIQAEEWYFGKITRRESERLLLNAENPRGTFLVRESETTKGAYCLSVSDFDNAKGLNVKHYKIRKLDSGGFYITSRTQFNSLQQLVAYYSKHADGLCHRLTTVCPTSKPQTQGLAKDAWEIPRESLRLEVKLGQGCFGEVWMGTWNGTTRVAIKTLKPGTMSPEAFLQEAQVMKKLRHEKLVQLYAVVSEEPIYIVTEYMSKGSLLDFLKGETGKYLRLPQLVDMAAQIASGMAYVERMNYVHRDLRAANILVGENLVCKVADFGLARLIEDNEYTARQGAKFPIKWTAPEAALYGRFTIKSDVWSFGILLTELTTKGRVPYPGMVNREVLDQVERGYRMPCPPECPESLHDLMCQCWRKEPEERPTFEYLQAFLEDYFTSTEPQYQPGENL

[3] = target: T2, Serine/threonine-protein kinase Chk1 (Homo sapiens) (UniProt O14757); details: Sf9, 0.1 uM
T2 sequence (whole entry): T1 sequence (O14757 whole entry)
Description: Inhibition of GST-tagged human full-length CHK1 expressed in Sf9 cells at 0.1 uM

For `CO[C@H]1[C@H](O)[C@H]2[C@@H](O[C@@H]1CN)n1c3ccccc3c3c4c(c5c6ccccc6n2c5c31)C(=O)NC4=O`, the IC50 [1] was 2.8 nM, the inhibition [2] was 35% and the inhibition [3] was 90%.
